We go through 4 compounds from publication PMC9412534, “Diindolylmethane Derivatives: New Selective Blockers for T-Type Calcium Channels” (Membranes, 2022).

“Also recorded” adds a separate entry of the source. Like-named read-outs stand apart in the source and are kept apart here. A value given as a limit tells only on which side of the number the result lay.

Holding throughout (format): cell-based
Experiment [1] deals with T1, recombinant hCaV3.3 channels (Homo sapiens, UniProt Q9P0X4).
T1 construct: the only CaV3.3-expressing cells described
T1 sequence (Q9P0X4 whole entry): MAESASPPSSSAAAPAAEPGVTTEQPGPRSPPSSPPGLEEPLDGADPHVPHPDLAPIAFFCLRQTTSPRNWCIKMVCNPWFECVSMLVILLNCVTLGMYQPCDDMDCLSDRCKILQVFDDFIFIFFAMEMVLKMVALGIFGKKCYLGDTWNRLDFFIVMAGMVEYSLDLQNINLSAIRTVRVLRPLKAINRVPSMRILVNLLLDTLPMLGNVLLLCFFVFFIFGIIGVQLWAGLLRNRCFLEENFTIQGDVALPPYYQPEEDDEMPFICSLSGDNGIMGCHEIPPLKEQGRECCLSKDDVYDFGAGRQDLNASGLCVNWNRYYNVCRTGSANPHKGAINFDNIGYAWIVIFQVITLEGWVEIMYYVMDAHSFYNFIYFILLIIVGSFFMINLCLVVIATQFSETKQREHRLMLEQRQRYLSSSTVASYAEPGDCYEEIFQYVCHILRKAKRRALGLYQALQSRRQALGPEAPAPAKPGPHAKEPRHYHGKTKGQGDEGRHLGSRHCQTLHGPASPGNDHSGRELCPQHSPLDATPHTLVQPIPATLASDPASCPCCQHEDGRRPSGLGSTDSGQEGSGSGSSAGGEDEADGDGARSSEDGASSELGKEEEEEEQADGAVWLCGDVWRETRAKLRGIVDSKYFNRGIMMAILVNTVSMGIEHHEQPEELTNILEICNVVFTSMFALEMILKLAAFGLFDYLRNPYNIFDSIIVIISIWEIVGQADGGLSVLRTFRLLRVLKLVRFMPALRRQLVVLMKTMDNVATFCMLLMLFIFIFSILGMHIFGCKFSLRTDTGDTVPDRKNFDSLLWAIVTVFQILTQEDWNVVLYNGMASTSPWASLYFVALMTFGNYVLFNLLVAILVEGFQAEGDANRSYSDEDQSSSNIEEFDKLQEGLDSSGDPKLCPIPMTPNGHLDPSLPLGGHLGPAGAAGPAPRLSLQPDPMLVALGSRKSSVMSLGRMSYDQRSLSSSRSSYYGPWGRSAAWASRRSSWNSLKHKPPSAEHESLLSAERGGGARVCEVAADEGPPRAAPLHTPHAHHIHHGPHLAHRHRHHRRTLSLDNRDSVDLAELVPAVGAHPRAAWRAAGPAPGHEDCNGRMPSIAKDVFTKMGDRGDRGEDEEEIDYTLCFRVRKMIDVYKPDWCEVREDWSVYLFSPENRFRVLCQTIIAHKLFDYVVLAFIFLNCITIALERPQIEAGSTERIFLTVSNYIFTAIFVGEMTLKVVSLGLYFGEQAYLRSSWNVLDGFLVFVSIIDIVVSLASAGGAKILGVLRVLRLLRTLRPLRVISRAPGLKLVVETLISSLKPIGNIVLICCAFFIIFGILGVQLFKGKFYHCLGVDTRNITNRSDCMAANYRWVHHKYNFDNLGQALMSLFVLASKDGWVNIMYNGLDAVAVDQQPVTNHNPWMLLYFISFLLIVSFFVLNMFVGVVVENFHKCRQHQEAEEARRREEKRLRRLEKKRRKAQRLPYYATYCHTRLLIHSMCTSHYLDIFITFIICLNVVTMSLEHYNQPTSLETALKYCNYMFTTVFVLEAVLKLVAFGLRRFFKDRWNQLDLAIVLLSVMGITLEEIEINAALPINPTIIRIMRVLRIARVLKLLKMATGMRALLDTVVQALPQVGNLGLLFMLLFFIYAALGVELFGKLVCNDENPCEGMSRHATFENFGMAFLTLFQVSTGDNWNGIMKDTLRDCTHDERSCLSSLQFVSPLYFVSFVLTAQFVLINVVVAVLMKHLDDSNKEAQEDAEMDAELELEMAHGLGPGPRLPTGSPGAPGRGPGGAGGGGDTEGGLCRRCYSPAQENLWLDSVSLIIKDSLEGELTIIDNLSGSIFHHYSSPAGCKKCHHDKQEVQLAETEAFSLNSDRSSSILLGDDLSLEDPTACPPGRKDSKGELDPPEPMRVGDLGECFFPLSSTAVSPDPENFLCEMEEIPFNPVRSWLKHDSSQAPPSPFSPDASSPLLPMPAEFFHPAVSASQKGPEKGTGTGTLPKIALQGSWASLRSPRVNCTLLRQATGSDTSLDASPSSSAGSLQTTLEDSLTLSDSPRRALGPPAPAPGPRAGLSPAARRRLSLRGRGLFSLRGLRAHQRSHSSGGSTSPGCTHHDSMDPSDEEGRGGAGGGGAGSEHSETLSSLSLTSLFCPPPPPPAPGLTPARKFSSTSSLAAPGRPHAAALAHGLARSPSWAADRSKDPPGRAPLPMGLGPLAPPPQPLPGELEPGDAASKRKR
The experiment can be described thus: Whole-cell patch-clamp (QPatch), CaV3.3. To be noted: for extent of block of CaV3.3 whole-cell inward Ca2+ current: QPatch; for IC50: whole-cell current, holding potential −90 mV, n = 3–5. The procedure:
(§1) The human embryonic kidney 293 (HEK 293) cell lines (from Emmanuel Bourinet, Montpellier, France) stably expressing CaV3.2 or CaV3.3 were cultured under 5% carbon dioxide at 37 °C in Dulbecco’s Modified Eagle Medium (DMEM) Glutamax (Gibco, Life Technologies, Carlsbad, CA, USA) supplemented with 10% (v/v) fetal bovine serum (FBS), 100 U/mL penicillin, 100 μg/mL streptomycin (Gibco, Life Technologies, Carlsbad, CA, USA), and 750 μg/mL geneticin (G418) (Gibco, Life Technologies). The Chinese Hamster Ovary (CHO) cell lines (Emmanuel Bourinet, Montpellier, France) expressing CaV3.1 were cultured under 5% carbon dioxide at 37 °C in Alpha Minimum Essential Media (MEM) Glutamax (Gibco, Life Technologies), supplemented with 10% (v/v) fetal bovine serum (FBS) and 300 μg/mL geneticin (G418) (Gibco, Life Technologies). The human neuroblastoma SH-SY5Y cells (Victor Diaz, Goettingen, Germany) were cultured under 5% carbon dioxide at 37 °C in RPMI 1640 antibiotic-free medium (Invitrogen, Carlsbad, CA, USA), supplemented with 15% FBS and 2 mM GlutaMAX™ (Invitrogen). D-PBS (Gibco, Life Technologies) was used to wash the cells, and 0.25% Trypsin-EDTA (Gibco, Life Technologies) was used to detach cells from the flask surface. They were split in a ratio of 1:5 (ideally 1000 cells/cm^2) when they reached 70–80% confluence (every 2–3 days). Transiently transfected CaV3.1 HEK293 T cells were used in FLIPR Assays. HEK 293 T cells were cultured under 5% carbon dioxide at 37 °C in DMEM supplemented with 10% (v/v) FBS. D-PBS was used to wash the cells, and 0.25% Trypsin-EDTA was used to detach cells from the flask surface. The cells were split and seeded at 6 million cells per T175 flask, to reach 70–80% confluence after 24 h. The next day, 12 μg DNA of human CaV3.1 was incubated in 900 μL serum-free DMEM with 36 μL FuGENE HD transfection reagent (Promega Corporation, Madison, WI, USA) (1:3 DNA/Fugene ratio) for 20 min, and then the mixture was added into the cell flask slowly, drop by drop. After the transfection, the cells were cultured under 5% carbon dioxide at 37 °C for 24 h and then moved to a 28 °C incubator.
(§2) Whole-cell patch-clamp experiments were performed on an automated electrophysiology platform QPatch 16 X (Sophion Bioscience A/S, Ballerup, Denmark) in single-hole configuration using 16-channel planar patch chip QPlates (Sophion Bioscience A/S). The extracellular recording solution contained, in mM: TEACl 157, MgCl2 0.5, CaCl2 5, and HEPES 10; pH 7.4 adjusted with TEAOH; and osmolarity 320 mOsm. The intracellular pipette solution contained, in mM: CsF 140, EGTA 1, HEPES 10, and NaCl 10; pH 7.2 adjusted with CsOH; and osmolarity 325 mOsm. Compounds were diluted in extracellular recording solution with 0.1% BSA at the concentrations stated (DMSO ≤ 0.1%), and the effects of compounds were compared to the control (extracellular solution with 0.1% BSA) parameters within the same cell. Compounds’ incubation time varied from two (for the highest concentration) to five (for the lowest concentration) minutes by applying the voltage protocol 10–30 times at 10 s intervals to ensure steady-state inhibition was achieved. The effects of compounds were obtained using 200 ms voltage steps to peak potential from a holding potential of −90 mV. Current–voltage (I–V) relationships were obtained by holding the cells at a potential of −100 mV before applying 50 ms pulses to potentials from −75 to +50 mV every 5 s in 5 mV increments. […]

Experiment [2] addresses T2, recombinant hCaV3.1 channels (Homo sapiens, UniProt O43497).
T2 construct: host or cells: probably the CHO cell line expressing CaV3.1 (inferred: transient HEK293T cells are assigned to FLIPR only)
The experiment can be described thus: Whole-cell patch-clamp (QPatch), CaV3.1. To be noted: for IC50: whole-cell current, holding potential −90 mV, n = 3–5. The procedure:
as §1, §2

In a further experiment the target is CaV3.2 (Homo sapiens, UniProt O95180). In words: T-type calcium channel window current FLIPR assay, CaV3.2. The procedure: as §1
HEK 293 cells stably expressing CaV3.2 or CaV3.3 were seeded into 384-well black wall clear bottom plates (Corning) at a density of 30,000 cells per well. Transiently transfected CaV3.1HEK293 T cells were seeded into 384-well black wall clear bottom plates at a density of 60,000 cells per well. Once the cells reached 90–95% confluence after 24 h, the media were removed from the wells and replaced with 20 μL of 10% calcium 4 dye (Molecular Devices, Sunnyvale, CA, USA) in HBSS-HEPES (containing 5 mM KCl, 10 mM HEPES, 140 mM NaCl, 10 mM glucose, and 0.5 mM CaCl2, pH 7.4) with 0.1% bovine serum albumin (BSA). The cells were incubated for 30 min at 37 °C in the presence of 5% carbon dioxide. Each well on the reagent plates for the first addition contained 15 μL different concentrations of compounds dissolved in HBSS-HEPES containing 0.1% BSA and <0.5% DMSO and was incubated for 20 min after loaded. Positive and negative controls contained 15 μL of HBSS-HEPES (0.1% BSA) alone. The plates were placed in the FLIPR^TETRA (Molecular Devices, Sunnyvale, CA, USA) programmed to measure maximum fluorescence intensity following a second addition of the agonist 5 mM CaCl2. The fluorescence readings were recorded and converted as described previously, and HBSS-HEPES (0.1% BSA) was used in the second addition as a negative control.

Where [3] appears, read: FLIPR window current, n = 3, read-out: IC50 CaV3.2 (LVA CaVs).
Setting [4] is: FLIPR, one separate experiment in quadruplicate (n = 4), read-out: IC50 of representative concentration-response curve, CaV3.2 window current.

T2 sequence (O43497 whole entry): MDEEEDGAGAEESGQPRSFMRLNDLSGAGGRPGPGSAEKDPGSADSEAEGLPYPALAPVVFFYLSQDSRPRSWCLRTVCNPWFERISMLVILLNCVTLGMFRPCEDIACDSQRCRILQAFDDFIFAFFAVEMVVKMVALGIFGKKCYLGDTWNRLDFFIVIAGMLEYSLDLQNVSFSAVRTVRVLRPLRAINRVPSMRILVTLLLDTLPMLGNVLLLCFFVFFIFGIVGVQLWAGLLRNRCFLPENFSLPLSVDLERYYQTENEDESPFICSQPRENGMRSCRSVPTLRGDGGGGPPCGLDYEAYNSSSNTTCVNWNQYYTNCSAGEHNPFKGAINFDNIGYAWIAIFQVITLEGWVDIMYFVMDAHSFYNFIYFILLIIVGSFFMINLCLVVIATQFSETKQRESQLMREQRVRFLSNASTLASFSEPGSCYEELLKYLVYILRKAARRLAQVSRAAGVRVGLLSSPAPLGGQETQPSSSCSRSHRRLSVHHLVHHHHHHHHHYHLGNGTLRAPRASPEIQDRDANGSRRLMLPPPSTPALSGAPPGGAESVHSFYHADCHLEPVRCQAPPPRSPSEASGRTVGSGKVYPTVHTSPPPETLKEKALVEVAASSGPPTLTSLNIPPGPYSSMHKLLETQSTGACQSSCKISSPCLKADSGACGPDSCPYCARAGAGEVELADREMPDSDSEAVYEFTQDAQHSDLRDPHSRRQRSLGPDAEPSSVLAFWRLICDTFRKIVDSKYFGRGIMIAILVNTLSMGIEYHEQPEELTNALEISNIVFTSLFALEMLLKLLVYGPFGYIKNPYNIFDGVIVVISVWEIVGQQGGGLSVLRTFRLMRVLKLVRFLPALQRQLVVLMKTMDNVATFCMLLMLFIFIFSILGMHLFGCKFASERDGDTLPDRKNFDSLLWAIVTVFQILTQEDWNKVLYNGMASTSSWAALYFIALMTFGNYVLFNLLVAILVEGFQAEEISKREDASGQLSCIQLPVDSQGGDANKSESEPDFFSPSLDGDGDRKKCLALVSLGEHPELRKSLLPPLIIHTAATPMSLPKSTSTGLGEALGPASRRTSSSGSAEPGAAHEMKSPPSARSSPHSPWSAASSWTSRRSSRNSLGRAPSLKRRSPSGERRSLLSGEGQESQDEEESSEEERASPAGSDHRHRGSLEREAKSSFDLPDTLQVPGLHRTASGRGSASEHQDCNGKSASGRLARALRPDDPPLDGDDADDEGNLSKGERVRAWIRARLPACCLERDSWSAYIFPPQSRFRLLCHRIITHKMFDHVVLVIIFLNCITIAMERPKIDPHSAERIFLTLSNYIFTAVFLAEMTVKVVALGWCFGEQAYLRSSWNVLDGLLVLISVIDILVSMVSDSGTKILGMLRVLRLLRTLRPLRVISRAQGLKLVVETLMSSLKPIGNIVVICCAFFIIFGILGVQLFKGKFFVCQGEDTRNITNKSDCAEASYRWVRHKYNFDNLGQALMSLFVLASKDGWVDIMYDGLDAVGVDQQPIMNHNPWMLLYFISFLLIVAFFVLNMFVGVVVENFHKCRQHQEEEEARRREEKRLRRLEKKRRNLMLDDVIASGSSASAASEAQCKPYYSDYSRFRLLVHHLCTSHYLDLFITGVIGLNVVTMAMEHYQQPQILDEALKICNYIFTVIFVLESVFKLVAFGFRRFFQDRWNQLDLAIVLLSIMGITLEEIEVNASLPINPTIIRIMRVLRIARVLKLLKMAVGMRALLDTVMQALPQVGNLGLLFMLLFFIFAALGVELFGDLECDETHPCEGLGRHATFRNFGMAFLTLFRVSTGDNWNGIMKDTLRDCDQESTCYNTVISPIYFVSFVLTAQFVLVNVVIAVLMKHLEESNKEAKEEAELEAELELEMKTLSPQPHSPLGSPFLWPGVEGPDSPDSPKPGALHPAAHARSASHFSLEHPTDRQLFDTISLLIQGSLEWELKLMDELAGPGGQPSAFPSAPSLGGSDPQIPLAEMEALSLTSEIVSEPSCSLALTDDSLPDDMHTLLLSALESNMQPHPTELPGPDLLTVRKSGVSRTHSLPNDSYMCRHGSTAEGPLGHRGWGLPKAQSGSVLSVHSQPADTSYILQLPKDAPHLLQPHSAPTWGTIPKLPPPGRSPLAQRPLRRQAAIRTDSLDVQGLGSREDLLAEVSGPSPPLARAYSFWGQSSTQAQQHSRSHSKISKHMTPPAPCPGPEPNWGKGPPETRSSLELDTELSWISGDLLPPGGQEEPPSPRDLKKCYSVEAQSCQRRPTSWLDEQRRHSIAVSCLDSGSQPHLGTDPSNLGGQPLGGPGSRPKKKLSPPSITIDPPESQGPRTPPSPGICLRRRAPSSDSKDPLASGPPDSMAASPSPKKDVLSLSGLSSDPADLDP

With `O=C(c1c[nH]c2ccccc12)c1c[nH]c2ccccc12` [DIM-one, 3,3′-diindolylmethanone], the “extent of block of CaV3.3 whole-cell inward Ca2+ current” value in experiment [1] is “poor inhibition”. The IC50 in experiment [1] was greater than 50 µM; in experiment [2] it was 1.53 µM; on CaV3.2 (setting [3]), 73.9 ± 2.48 µM; at CaV3.2 (setting [4]), 74 µM. The “reduced potency for CaV3.2 window current compared to DIM” value at CaV3.2 (FLIPR) is reported as ~ 1.4 fold.

As to `O=C(c1c[nH]c2cc(Br)ccc12)c1c[nH]c2cc(Br)ccc12` [IV], on CaV3.2 (setting [3]), the IC50 stood at 57.3 ± 3.38 µM.

With `O=C(c1cn(Cc2ccccc2)c2ccccc12)c1cn(Cc2ccccc2)c2ccccc12` [IX, bis(1-benzyl-1H-indol-3-yl)methanone], the “extent of block of CaV3.3 whole-cell inward Ca2+ current” value in experiment [1] was “partially blocked; also recorded: only partial inhibition”. Moreover, the IC50 in experiment [1] turned out to be 2.09 ± 0.69 µM; in experiment [2], 47.4 ± 11.7 µM; at CaV3.2 (IC50 CaV3.2 (LVA CaVs), FLIPR window current, n = 3), 3.05 ± 0.51 µM; on CaV3.2 (IC50 of representative concentration-response curve, CaV3.2 window current, FLIPR, one separate experiment in quadruplicate (n = 4)), 3.28 µM.

For `c1ccc2c(Cc3c[nH]c4ccccc34)c[nH]c2c1` [DIM, 3,3′-diindolylmethane, reference compound], the IC50 in experiment [1] stood at 9.63 ± 0.97 µM; in experiment [2], 8.32 ± 1.53 µM; on CaV3.2 (setting [3]) it was 52.2 ± 3.8 µM; at CaV3.2 (setting [4]) it was 54.7 µM. In addition, the “effect of low concentrations on CaV3.1 channel current” value in experiment [2] (QPatch, 49 nM–3.1 µM) is recorded as “weakly enhanced”. In addition, the “shift in the I–V relationship of CaV3.1” value in experiment [2] (QPatch, 2.5 µM and 15 µM) is listed as “not accompanied by shifts”.
